The test system of series [1] is Influenza A virus (A/Puerto Rico/8/34). The series can be described thus: microbe, parasite or virus in culture. The format is cell-based. The note with it: PRA, MDCK cells.
In a further series the test system is HSV-2. The series can be described thus: Plaque reduction assay (PRA), HSV-2 in Vero cells. In kind it is cell-based, Herpes simplex virus 2. As to conditions: Human alphaherpesvirus 2, Vero, read-out: EC50 HSV-2.
For the next series, the system named is hCoV-229E. The series can be described thus: Anti-hCoV-229E activity in MRC5 fibroblasts (CPE, CellTiter-Glo). In kind it is cell-based. Background: In ATP-based viability assays light output follows the ATP content of the culture.
For the next series, the system named is hCoV-OC43. The series can be described thus: Anti-hCoV-OC43 activity in HCT-8 cells, concentration-dependent.
Series [2] is described as follows: in vitro. As to conditions: African green monkey.
For a further series, the system named is HSV-1. The series can be described thus: Plaque reduction assay (PRA), HSV-1 in Vero cells. The format is cell-based, Herpes simplex virus 1. As to conditions: Human alphaherpesvirus 1, Vero, read-out: EC50 HSV-1. Background: Plaques are areas of infected cells; plaque reduction assays count them against a control.
Series [3] is described as follows: in vitro. In kind it is cell-based. As to conditions: human.
The nature of series [4]: log D (pH 7.4), shake-flask n-octanol/PBS. The note with it: n-octanol/PBS pH 7.4, shake flask.
Procedure: Lipophilicity. The shake flask method was chosen to determinate logD7.4.
The partition coefficients between n-octanol and PBS at pH 7.4 (log D^7.4) were obtained using the shake-flask technique at room temperature. In the shake-flask experiments, 50 mM of phosphate buffered saline pH 7.4 was used as the aqueous phase. The organic (n-octanol) and aqueous phases were mutually saturated by shaking for 4 h. The compounds were solubilized in the buffered aqueous phase at the highest concentration compatible with solubility and appropriate amounts of n-octanol were added. The two phases were shaken for about 20 min, by which time the partitioning equilibrium of solutes had been reached, and then centrifuged (10000 rpm, 10 min).
Series [5] relates to RSV. The series can be described thus: Plaque reduction assay (PRA), RSV in HEp-2 cells. The format is cell-based. As to conditions: human respiratory syncytial virus, HEp-2, read-out: EC50 RSV.
Series [6] can be described thus: Cytotoxicity on MDCK cells (Cell Titer Glo). The format is cell-based, Canine. As to conditions: dog, read-out: CC50 (Influenza A row).
For series [7] the following is noted: literature value (refs 15, 16); read-out: CC50 from literature (SARS-CoV-2); cited from earlier work.
Series [8] relates to RSV. As to conditions: literature value (ref 17); read-out: EC50 RSV from literature; cited from earlier work.
For another series, the system named is SARS-CoV-2. As to conditions: literature value (refs 15, 16); read-out: EC50 SARS-CoV-2 from literature; cited from earlier work.

The text below walks through data of patent US20240034730A1, “PYRAZOLO DERIVATIVES AS HUMAN DIHYDROOROTATE DEHYDROGENASE (HDHODH) INHIBITORS FOR USE AS ANTIVIRALS” (DRUG DISCOVERY AND CLINIC S.R.L., priority 2020, published 2024).

A word on the EC50: it is the midpoint of the concentration-response curve.

Read-outs that look alike come from different tables or passages of the source.

On to `Cc1c(-c2ccc(-c3ccccc3F)cc2)nc2ccc(F)cc2c1C(=O)O` [Brequinar], for which the EC50 in series [1] amounted to 760 nM; in the series on HSV-2, 1770 nM; in the series with hCoV-229E (Human coronavirus 229E, MRC5, MRC5 fibroblasts) it was 42.7 ± 3 nM; in the series with hCoV-229E (MRC5 fibroblasts), 22 nM; with hCoV-OC43 (read-out: EC50 hCoV-OC43), 42.7 nM; with hCoV-OC43 (read-out: EC50 hCoV-OC43, listed as brequinar), 22 ± 3 nM. Also, the EC50 is 530 nM with HSV-1 and 15 nM in the series on RSV [5]. This molecule also yielded a CC50 at 3 days in the series “in vitro [2]” of 100 µM. Further, the CC50 at 72 h in the series “in vitro [3]” was 168 µM; in [6], 5 µM. Also, the “Log D7.4 ± SD” value in series [4] is 1.83 ± 0.02.

As for `O=c1nc(NO)ccn1[C@@H]1O[C@H](CO)[C@@H](O)[C@H]1O` [EIDD-1931], in series [7], the CC50 is above 10 µM. The figures for the EC50 in the series with RSV [8] and in the series with SARS-CoV-2 were 690 nM and 300 nM, respectively.

As to `CCC(CC)COC(=O)[C@H](C)N[P@](=O)(OC[C@H]1O[C@@](C#N)(c2ccc3c(N)ncnn23)[C@H](O)[C@@H]1O)Oc1ccccc1` [Remdesivir], the CC50 in series [7] was above 100 µM. For the same molecule, the EC50 in the series on hCoV-229E (Human coronavirus 229E, MRC5 fibroblasts) came to 34.8 ± 5 nM; in the series on hCoV-OC43 (read-out: EC50 hCoV-OC43) it was 147 ± 34 nM.
